For orientation: IC50 means the concentration at which inhibition is half-maximal.

The experiment has as its system γ-secretase activity. The experiment can be described thus: Screening for γ-secretase-modulating activity in SKN neuroblastoma cells carrying APP swedish mutant. It counts as cell-based. The following applies: read-out: IC50 on the γ-secretase activity, Activity range. The method, then: Screening was carried out using SKN neuroblastoma cells carrying the APP-“swedish mutant” (point mutations at position 595 and 596, numbering based on APP695) grown in DMEM/NUT-mix F12 (HAM) provided by Gibco (cat no. 31330-38) containing 5% Serum/Fe supplemented with 1% non-essential amino acids, 100 U/ml Pen/Strep.
Cells were grown to near confluency.
The screening was performed using the assay as described in Citron et al (1997) Nature Medicine 3: 67.
IC50-Values of Selected Compounds of the Invention on the γ-Secretase Activity.
For `CC(C)c1ccc(COc2cc(CC(=O)O)cc(-c3ccc(C(F)(F)F)cc3)c2)cc1` [II, [5-(4-Isopropyl-benzyloxy)-4′-trifluoromethyl-biphenyl-3-yl]-acetic acid], the IC50 was 1 to 10 µM.
For `CS(=O)(=O)c1ccc(COc2cc(CC(=O)O)cc(-c3ccc(C(F)(F)F)cc3)c2)cc1` [IV, [5-(4-Methanesulfonyl-benzyloxy)-4′-trifluoromethyl-biphenyl-3-yl]-acetic acid] the value was 10 to 100 µM; for `O=C(O)Cc1cc(OCc2ccccc2C(F)(F)F)cc(-c2ccc(C(F)(F)F)cc2)c1` [L, [4′-Trifluoromethyl-5-(2-trifluoromethyl-benzyloxy)-biphenyl-3-yl]-acetic acid], 1 to 10 µM; for `O=C(O)Cc1cc(OCCc2ccccc2)cc(-c2ccc(C(F)(F)F)cc2)c1` [LI, (5-Phenethyloxy-4′-trifluoromethyl-biphenyl-3-yl)-acetic acid], 1 to 10 µM.
In the case of `O=C(O)Cc1cc(OCC2CCCCO2)cc(-c2ccc(C(F)(F)F)cc2)c1` (stereo not shown) [LII, [5-(Tetrahydro-pyran-2-ylmethoxy)-4′-trifluoromethyl-biphenyl-3-yl]-acetic acid], the IC50 is 100 to 300 µM.
On to `CN(C)C(=O)c1ccc(COc2cc(CC(=O)O)cc(-c3ccc(C(F)(F)F)cc3)c2)cc1` [LIII, [5-(4-Dimethylcarbamoyl-benzyloxy)-4′-trifluoromethyl-biphenyl-3-yl]-acetic acid], for which the IC50 was in the range of 100 to 300 µM.
Take `CNC(=O)c1ccc(COc2cc(CC(=O)O)cc(-c3ccc(C(F)(F)F)cc3)c2)cc1` [LIV, [5-(4-Methylcarbamoyl-benzyloxy)-4′-trifluoromethyl-biphenyl-3-yl]-acetic acid]: the IC50 is 100 to 300 µM.
Take `O=C(O)Cc1cc(OCc2cccc(Cl)c2)cc(-c2ccc(C(F)(F)F)cc2)c1` [LIX, [5-(3-Chloro-benzyloxy)-4′-trifluoromethyl-biphenyl-3-yl]-acetic acid]: the IC50 was 1 to 10 µM.
Take `O=C(O)Cc1cc(OCc2ccc(C(=O)N3CCCC3)cc2)cc(-c2ccc(C(F)(F)F)cc2)c1` [LV, {5-[4-(Pyrrolidine-1-carbonyl)-benzyloxy]-4′-trifluoromethyl-biphenyl-3-yl}-acetic acid]: the IC50 was in the range of 10 to 100 µM.
Consider `O=C(O)Cc1cc(OCc2ccc(S(=O)(=O)N3CCOCC3)cc2)cc(-c2ccc(C(F)(F)F)cc2)c1` [LVI, {5-[4-(Morpholine-4-sulfonyl)-benzyloxy]-4′-trifluoromethyl-biphenyl-3-yl}-acetic acid], for which the IC50 lay within 10 to 100 µM.
With `O=C(O)Cc1cc(OCc2ccc(OC(F)(F)F)cc2)cc(-c2ccc(C(F)(F)F)cc2)c1` [LVII, [5-(4-Trifluoromethoxy-benzyloxy)-4′-trifluoromethyl-biphenyl-3-yl]-acetic acid], the IC50 is 1 to 10 µM.
`O=C(O)Cc1cc(OCc2ccccc2Cl)cc(-c2ccc(C(F)(F)F)cc2)c1` [LVIII, [5-(2-Chloro-benzyloxy)-4′-trifluoromethyl-biphenyl-3-yl]-acetic acid]: the IC50 lay in the range of 1 to 10 µM.
Then `Cc1ccc(COc2cc(CC(=O)O)cc(-c3ccc(C(F)(F)F)cc3)c2)cc1` [LX, [5-(4-Methyl-benzyloxy)-4′-trifluoromethyl-biphenyl-3-yl]-acetic acid], with 1 to 10 µM.
For `O=C(O)Cc1cc(OCc2ccccc2)cc(-c2ccccc2)c1` [VII, (5-Benzyloxy-biphenyl-3-yl)-acetic acid] the value was 1 to 10 µM; for `O=C(O)Cc1cc(OCc2ccccc2)cc(-c2cc(C(F)(F)F)cc(C(F)(F)F)c2)c1` [XI, (5-Benzyloxy-3′,5′-bis-trifluoromethyl-biphenyl-3-yl)-acetic acid], 1 to 10 µM.
On to `O=C(O)Cc1cc(OCc2ccccc2)cc(-c2ccc(Cl)c(Cl)c2)c1` [XII, (5-Benzyloxy-3′,4′-dichloro-biphenyl-3-yl)-acetic acid], for which the IC50 lay within 1 to 10 µM.
For the molecule `COc1cccc(-c2cc(CC(=O)O)cc(OCc3ccccc3)c2)c1` [XIV, (5-benzyloxy-3′-methoxy-biphenyl-3-yl)-acetic Acid], the IC50 was in the range of 10 to 100 µM.
Turning to `O=C(O)Cc1cc(OCc2ccc(Cl)cc2)cc(-c2ccc(C(F)(F)F)cc2)c1` [XLI, [5-(4-Chloro-benzyloxy)-4′-trifluoromethyl-biphenyl-3-yl]-acetic acid], the IC50 lay in the range of 1 to 10 µM.
For `Cc1cc(COc2cc(CC(=O)O)cc(-c3ccc(C(F)(F)F)cc3)c2)no1` [XLIII, [5-(5-Methyl-isoxazol-3-ylmethoxy)-4′-trifluoromethyl-biphenyl-3-yl]-acetic acid], the IC50 was 10 to 100 µM.
Consider `O=C(O)Cc1cc(OCc2cccc(C(F)(F)F)c2)cc(-c2ccc(C(F)(F)F)cc2)c1` [XLIX, [4′-Trifluoromethyl-5-(3-trifluoromethyl-benzyloxy)-biphenyl-3-yl]-acetic acid], for which the IC50 is 1 to 10 µM.
For `O=C(O)Cc1cc(OCC2CCOCC2)cc(-c2ccc(C(F)(F)F)cc2)c1` [XLV, [5-(Tetrahydro-pyran-4-ylmethoxy)-4′-trifluoromethyl-biphenyl-3-yl]-acetic acid] the value was 10 to 100 µM; for `O=C(O)Cc1cc(OCc2ccc(C(=O)N3CCOCC3)cc2)cc(-c2ccc(C(F)(F)F)cc2)c1` [XLVIII, {5-[4-(Morpholine-4-carbonyl)-benzyloxy]-4′-trifluoromethyl-biphenyl-3-yl}-acetic acid], 10 to 100 µM; for `NC(=O)c1cccc(-c2cc(CC(=O)O)cc(OCc3ccccc3)c2)c1` [XV, (5-benzyloxy-3′-carbamoyl-biphenyl-3-yl)-acetic Acid], 10 to 100 µM.
For `O=C(O)Cc1cc(OCc2ccccc2)cc(-c2cccc(O)c2)c1` [XVI, (5-benzyloxy-3′-hydroxy-biphenyl-3-yl)-acetic Acid], the IC50 fell in the range of 10 to 100 µM.
As for `CS(=O)(=O)c1ccc(-c2cc(CC(=O)O)cc(OCc3ccccc3)c2)cc1` [XVII, (5-benzyloxy-4′-methanesulfonyl-biphenyl-3-yl)-acetic Acid], the IC50 was 10 to 100 µM.
For `NS(=O)(=O)c1ccc(-c2cc(CC(=O)O)cc(OCc3ccccc3)c2)cc1` [XVIII, (5-benzyloxy-4′-sulfamoyl-biphenyl-3-yl)-acetic Acid], the IC50 was in the range of 10 to 100 µM.
Then `O=C(O)Cc1cc(OCc2ccccc2)cc(-c2ccc(F)cc2)c1` [XXII, (5-Benzyloxy-4′-fluoro-biphenyl-3-yl)-acetic acid], with 10 to 100 µM; and `O=C(O)Cc1cc(OCc2ccccc2)cc(-c2ccc(Cl)cc2)c1` [XXIII, (5-Benzyloxy-4′-chloro-biphenyl-3-yl)-acetic acid], with 1 to 10 µM; and `CC(=O)Nc1ccc(-c2cc(CC(=O)O)cc(OCc3ccccc3)c2)cc1` [XXIV, (4′-Acetylamino-5-benzyloxy-biphenyl-3-yl)-acetic acid], with 100 to 300 µM.
Then `COc1ccc(-c2cc(CC(=O)O)cc(OCc3ccccc3)c2)cc1` [XXIX, (5-Benzyloxy-4′-methoxy-biphenyl-3-yl)-acetic acid], with 10 to 100 µM.
As for `O=C(O)Cc1cc(OCc2ccccc2)cc(-c2ccc(O)cc2)c1` [XXV, (5-Benzyloxy-4′-hydroxy-biphenyl-3-yl)-acetic acid], the IC50 lay within 100 to 300 µM.
As for `CC(C)Oc1ccc(-c2cc(CC(=O)O)cc(OCc3ccccc3)c2)cc1` [XXVI, (5-Benzyloxy-4′-isopropoxy-biphenyl-3-yl)-acetic acid], the IC50 lay within 10 to 100 µM.
`O=C(O)Cc1cc(OCc2ccccc2)cc(-c2cc(F)cc(F)c2)c1` [XXVII, (5-Benzyloxy-3′,5′-difluoro-biphenyl-3-yl)-acetic acid]: the IC50 lay within 10 to 100 µM.
In the case of `CC(C)Oc1cccc(-c2cc(CC(=O)O)cc(OCc3ccccc3)c2)c1` [XXVIII, (5-Benzyloxy-3′-isopropoxy-biphenyl-3-yl)-acetic acid], the IC50 is 10 to 100 µM.
Turning to `COc1ccccc1-c1cc(CC(=O)O)cc(OCc2ccccc2)c1` [XXX, (5-Benzyloxy-2′-methoxy-biphenyl-3-yl)-acetic acid], the IC50 was in the range of 10 to 100 µM.
`Cc1ccccc1-c1cc(CC(=O)O)cc(OCc2ccccc2)c1` [XXXI, (5-Benzyloxy-2′-methyl-biphenyl-3-yl)-acetic acid]: the IC50 lay within 10 to 100 µM.
In the case of `Cc1cccc(-c2cc(CC(=O)O)cc(OCc3ccccc3)c2)c1` [XXXII, (5-Benzyloxy-3′-methyl-biphenyl-3-yl)-acetic acid], the IC50 was in the range of 10 to 100 µM.
`O=C(O)Cc1cc(OCc2ccccc2)cc(-c2cccc(C(F)(F)F)c2)c1` [XXXIII, (5-Benzyloxy-3′-trifluoromethyl-biphenyl-3-yl)-acetic acid]: the IC50 lay in the range of 10 to 100 µM.
For the molecule `O=C(O)Cc1cc(OCc2ccccc2)cc(-c2ccccc2F)c1` [XXXIV, (5-Benzyloxy-2′-fluoro-biphenyl-3-yl)-acetic acid], the IC50 was in the range of 10 to 100 µM.
Take `Cc1ccc(-c2cc(CC(=O)O)cc(OCc3ccccc3)c2)cc1` [XXXV, (5-Benzyloxy-4′-methyl-biphenyl-3-yl)-acetic acid]: the IC50 was 10 to 100 µM.
Turning to `O=C(O)Cc1cc(OCc2ccccc2)cc(-c2cccc(F)c2)c1` [XXXVI, (5-Benzyloxy-3′-fluoro-biphenyl-3-yl)-acetic acid], the IC50 was 10 to 100 µM.
As for `O=C(O)Cc1cc(OCc2ccccc2)cc(-c2cccc(Cl)c2)c1` [XXXVII, (5-Benzyloxy-3′-chloro-biphenyl-3-yl)-acetic acid], the IC50 was 100 to 300 µM.
With `O=C(O)Cc1cc(OCc2ccccc2)cc(-c2cccc(OC(F)(F)F)c2)c1` [XXXVIII, (5-Benzyloxy-3′-trifluoromethoxy-biphenyl-3-yl)-acetic acid], the concentration for half-maximal inhibition (IC50) was 1 to 10 µM.

For the origin of these results see patent US7825160B2, “(Biphenyl) carboxylic acids and derivatives thereof” (Cellzome Limited, priority 2004, dated 2010).
